Results published in PubChem BioAssay AID1259411 (Chemical Carcinogenesis Research Information System (CCRIS), 2018).
The source made the active and inactive calls. No rule for the calls is given here.

System: rodent carcinogenicity bioassays, tumor incidence
Test: CCRIS carcinogenicity studies
Procedure, shortened: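 Archive of carcinogenicity, mutagenicity, tumor promotion and tumor inhibition results drawn from journals, NCI reports and other sources, expert-reviewed; covers 1985-2011 and is no longer updated.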

Which carcinogen call (Species: HAMSTER, Strain/Sex: SYRIAN/FEMALE, Route: GAVAGE, Dose: 0, 2.5, 5 MG/KG 1/WK FOR 23-30 WK (TOTAL DOSE: 0; 0.65; 1.0 MMOL) (STUDY DURATION: LIFETIME), Dose: 0, 2.5, 5 MG/KG 1/WK FOR 23-30 WK (TOTAL DOSE: 0; 0.65; 1.0 MMOL) (STUDY DURATION: LIFETIME), Tumor Site: Type of Lesion: LIVER: HEPATOCELLULAR ADENOMA, LUNG: ALVEOLAR/BRONCHIAL ADENOMA, NASAL MUCOSA: CARCINOMA, ADENOMA, FORESTOMACH: SQUAMOUS, Tumor Site: Type of Lesion: LIVER: HEPATOCELLULAR ADENOMA, LUNG: ALVEOLAR/BRONCHIAL ADENOMA, NASAL MUCOSA: CARCINOMA, ADENOMA, FORESTOMACH: SQUAMOUS) does the source give for `CCCCN(C)N=O` here?
The carcinogen call was “active; positive”.

And the carcinogen call (Species: HAMSTER, Strain/Sex: SYRIAN/MALE, Route: GAVAGE, Dose: 0, 2.5, 5 MG/KG 1/WK FOR 23-30 WK (TOTAL DOSE: 0; 0.65; 1.0 MMOL) (STUDY DURATION: LIFETIME), Dose: 0, 2.5, 5 MG/KG 1/WK FOR 23-30 WK (TOTAL DOSE: 0; 0.65; 1.0 MMOL) (STUDY DURATION: LIFETIME), Tumor Site: Type of Lesion: LIVER: HEPATOCELLULAR ADENOMA, HEMANGIOSARCOMA, LUNG: ALVEOLAR/BRONCHIAL ADENOMA, NASAL MUCOSA: CARCINOMA, ADENOMA, FORE, Tumor Site: Type of Lesion: LIVER: HEPATOCELLULAR ADENOMA, HEMANGIOSARCOMA, LUNG: ALVEOLAR/BRONCHIAL ADENOMA, NASAL MUCOSA: CARCINOMA, ADENOMA, FORE)?
The carcinogen call was “active; positive”.

And the carcinogen call (Species: RAT, Strain/Sex: F344/FEMALE, Route: INTRAVESICULAR, Dose: 0, 3 MG IN 0.2 ML ETHANOL: DEIONIZED WATER (1:3) 2/WK FOR 17 WK (TOTAL DOSE 0.9 MMOL) (STUDY DURATION: LIFESPAN), Tumor Site: Type of Lesion: ESOPHAGUS: TUMOR, LIVER: HEMANGIOSARCOMA)?
The carcinogen call was “active; positive”.

What does the source list for `c1ccc2c(c1)ccc1nc3ccc4ccccc4c3cc12`?
carcinogen call (Species: MOUSE, Route: DERMAL, Tumor Site: Type of Lesion: INTEGUMENTARY SYSTEM (SKIN)): active; positive; carcinogen call (Species: MOUSE, Route: SUBCUTANEOUS, Tumor Site: Type of Lesion: LUNG): active; positive; carcinogen call (Species: MOUSE, Strain/Sex: HSD:ICR(BR)/FEMALE, Route: DERMAL, Dose: 0, 50 NMOL IN 50 µL ACETONE 2/WK FOR 99 WK (STUDY DURATION: 99 WK), Tumor Site: Type of Lesion: SKIN: TUMOR): active; positive; carcinogen call (Species: RAT, Strain/Sex: OSBORNE-MENDEL/FEMALE, Route: LUNG IMPLANT, Dose: 0, 0.1, 0.3, 1.0 MG IN BEESWAX/TRICAPRYLIN (STUDY DURATION: LIFETIME), Dose: 0, 0.1, 0.3, 1.0 MG IN BEESWAX/TRICAPRYLIN (STUDY DURATION: LIFETIME)): inactive; negative

With `COS(=O)(=O)OC` as the compound, how does the carcinogen call (Species: RAT, Route: INHALATION, Tumor Site: Type of Lesion: NASAL CAVITY, BRAIN) read?
Its carcinogen call is “active; positive”.

And the carcinogen call (Species: RAT, Route: SUBCUTANEOUS, Tumor Site: Type of Lesion: INJECTION SITE)?
Its carcinogen call is “active; positive”.

How did the carcinogen call (Species: RAT, Strain/Sex: F344/MALE,FEMALE, Route: ORAL, Dose: 2.5, 5% IN DRINKING WATER FOR 2 YR) turn out when `O=[N+]([O-])O` was run?
Its carcinogen call is “inactive; negative”.

What does the source list for `C=CC=O`?
carcinogen call (Species: MOUSE, Strain/Sex: B6C3F1/FEMALE, Route: INTRAPERITONEAL, Dose: 0, 75 NMOL TOTAL DOSE, 1/3 AND 2/3 OF THE TOTAL DOSE ADMINISTERED AT 8 AND 15 DAYS OF AGE RESPECTIVELY, ANIMALS TERMINAT): inactive; negative; carcinogen call (Species: MOUSE, Strain/Sex: B6C3F1/FEMALE, Route: INTRAPERITONEAL, Dose: 0, 150 NMOL TOTAL DOSE, 1/3 AND 2/3 OF THE TOTAL DOSE ADMINISTERED AT 8 AND 15 DAYS OF AGE RESPECTIVELY, ANIMALS TERMINA): inactive; negative; carcinogen call (Species: MOUSE, Strain/Sex: B6C3F1/MALE, Route: INTRAPERITONEAL, Dose: 0, 75 NMOL TOTAL DOSE, 1/3 AND 2/3 OF THE TOTAL DOSE ADMINISTERED AT 8 AND 15 DAYS OF AGE RESPECTIVELY, ANIMALS TERMINAT): inactive; negative; carcinogen call (Species: MOUSE, Strain/Sex: B6C3F1/MALE, Route: INTRAPERITONEAL, Dose: 0, 150 NMOL TOTAL DOSE, 1/3 AND 2/3 OF THE TOTAL DOSE ADMINISTERED AT 8 AND 15 DAYS OF AGE RESPECTIVELY, ANIMALS TERMINA): inactive; negative; carcinogen call (Species: MOUSE, Strain/Sex: CD-1/FEMALE, Route: GAVAGE, Dose: 0, 0.5, 2, 4.5 MG/KG (STABILIZED WITH 0.25%-0.3% HYDROQUINONE) 1/D FOR 18 MO (STUDY DURATION: 18 MO), Dose: 0, 0.5, 2, 4.5 MG/KG (STABILIZED WITH 0.25%-0.3% HYDROQUINONE) 1/D FOR 18 MO (STUDY DURATION: 18 MO)): inactive; negative; carcinogen call (Species: MOUSE, Strain/Sex: CD-1/MALE, Route: GAVAGE, Dose: 0, 0.5, 2, 4.5 MG/KG (STABILIZED WITH 0.25%-0.31 HYDROQUINONE) 1/D FOR 18 MO (STUDY DURATION: 18 MO), Dose: 0, 0.5, 2, 4.5 MG/KG (STABILIZED WITH 0.25%-0.31 HYDROQUINONE) 1/D FOR 18 MO (STUDY DURATION: 18 MO)): inactive; negative; carcinogen call (Species: RAT, Strain/Sex: F344/FEMALE, Route: ORAL, Dose: 0, 625 MG/L IN DRINKING WATER 5 D/WK FOR 100 WK (STUDY DURATION: 130 WK)): inactive; negative; carcinogen call (Species: RAT, Strain/Sex: F344/MALE, Route: INTRAPERITONEAL, Dose: 0, 2 MG/KG 2/WK FOR 9 WK THEN 1.5 MG/KG ONCE IN WK 4 THEN 2/WK FOR 7 WK FOLLOWED BY 1 MG/KG ONCE IN WK 12, TWICE IN WK 1): inactive; negative; carcinogen call (Species: RAT, Strain/Sex: F344/MALE, Route: ORAL, Dose: 0, 100, 250, 625 MG/L IN DRINKING WATER 5 D/WK FOR UP TO 120 WK (STUDY DURATION: 130 WK), Dose: 0, 100, 250, 625 MG/L IN DRINKING WATER 5 D/WK FOR UP TO 120 WK (STUDY DURATION: 130 WK)): inactive; negative; carcinogen call (Species: RAT, Strain/Sex: SPRAGUE-DAWLEY/FEMALE, Route: GAVAGE, Dose: 0, 0.05, 0.5, 2.5 MG/KG/D IN WATER FOR 102 WK (STUDY DURATION: 24 MO), Dose: 0, 0.05, 0.5, 2.5 MG/KG/D IN WATER FOR 102 WK (STUDY DURATION: 24 MO)): inactive; negative; carcinogen call (Species: RAT, Strain/Sex: SPRAGUE-DAWLEY/MALE, Route: GAVAGE, Dose: 0, 0.05, 0.5, 2.5 MG/KG/D IN WATER FOR 102 WK (STUDY DURATION: 24 MO), Dose: 0, 0.05, 0.5, 2.5 MG/KG/D IN WATER FOR 102 WK (STUDY DURATION: 24 MO)): inactive; negative

With `Cl/C=C\CCl` as the compound, how does the carcinogen call (Species: MOUSE, Strain/Sex: ICR/FEMALE, Route: SUBCUTANEOUS, Dose: 3.0 MG/INJ IN 0.05 ML TRIOCTANOIN 1/WK, Tumor Site: Type of Lesion: INJECTION SITE: FIBROSARCOMA) read?
Its carcinogen call is “active; positive”.
